According to ChEMBL document CHEMBL1201862, “PubChem BioAssay data set” (2004):
Calls of active or inactive are those of the source.

Legend:
[1] = molecular target: Glucose-6-phosphate 1-dehydrogenase (Homo sapiens, UniProt P11413); experiment: inhibition of Homo sapiens G6PD, dose series – biochemical, fluorescence, selectivity assay for P. falciparum G6PD inhibitor project, dose response (AID 504792); type: functional
[2] = molecular target: Heat shock protein HSP 90-alpha (Homo sapiens, UniProt P07900); type: functional, organism-based
[3] = molecular target: T1, Corticotropin-releasing factor receptor 2/Corticotropin-releasing factor-binding protein (Homo sapiens, UniProt P24387+Q13324); experiment: Dose Response confirmation of uHTS hits for small molecule antagonists of the CRF-binding protein and CRF-R2 receptor complex.; type: functional; conditions: read-out: IC50_Mean
T1 sequence (Q13324 whole entry): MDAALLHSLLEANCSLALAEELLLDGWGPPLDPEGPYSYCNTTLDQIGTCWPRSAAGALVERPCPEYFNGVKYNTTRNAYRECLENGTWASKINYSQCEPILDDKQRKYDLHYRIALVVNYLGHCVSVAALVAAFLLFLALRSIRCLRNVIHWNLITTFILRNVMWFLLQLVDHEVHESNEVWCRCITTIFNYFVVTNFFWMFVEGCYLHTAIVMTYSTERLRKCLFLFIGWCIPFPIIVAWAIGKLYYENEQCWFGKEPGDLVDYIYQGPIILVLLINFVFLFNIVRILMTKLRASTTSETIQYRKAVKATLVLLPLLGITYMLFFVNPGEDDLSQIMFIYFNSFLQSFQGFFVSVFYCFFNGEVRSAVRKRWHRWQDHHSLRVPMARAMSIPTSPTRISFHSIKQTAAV
T1 sequence (P24387 whole entry): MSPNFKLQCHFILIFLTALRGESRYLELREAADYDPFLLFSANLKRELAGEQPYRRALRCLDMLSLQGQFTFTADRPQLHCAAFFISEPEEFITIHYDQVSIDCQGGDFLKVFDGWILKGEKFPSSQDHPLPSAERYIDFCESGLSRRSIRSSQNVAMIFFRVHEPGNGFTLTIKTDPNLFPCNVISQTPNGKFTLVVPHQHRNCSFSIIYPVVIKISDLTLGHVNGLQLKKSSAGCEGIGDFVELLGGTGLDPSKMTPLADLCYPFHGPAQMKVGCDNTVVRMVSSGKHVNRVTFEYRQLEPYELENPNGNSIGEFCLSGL

[4] = molecular target: T1, Corticotropin-releasing factor receptor 2/Corticotropin-releasing factor-binding protein; experiment: activators of CRF receptor 2 with binding protein – uHTS hits, confirmation (AID 602473); type: functional; conditions: read-out: EC50_Mean
Estrogen receptor beta = Estrogen receptor beta (Homo sapiens, UniProt Q92731);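 also: recombinant ER-beta bound to coactivator SRC1 peptide in presence of estradiol agonist; inhibitors block coactivator peptide binding and lower the FRET signal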
[5] = molecular target: T2, Calpain-2 catalytic subunit (Sus scrofa, UniProt P43367); experiment: m-calpain protease blockers, concentration series – biochemical, fluorogenic peptide substrate, dose response (AID 1420); type: functional
T2 sequence (P43367 whole entry): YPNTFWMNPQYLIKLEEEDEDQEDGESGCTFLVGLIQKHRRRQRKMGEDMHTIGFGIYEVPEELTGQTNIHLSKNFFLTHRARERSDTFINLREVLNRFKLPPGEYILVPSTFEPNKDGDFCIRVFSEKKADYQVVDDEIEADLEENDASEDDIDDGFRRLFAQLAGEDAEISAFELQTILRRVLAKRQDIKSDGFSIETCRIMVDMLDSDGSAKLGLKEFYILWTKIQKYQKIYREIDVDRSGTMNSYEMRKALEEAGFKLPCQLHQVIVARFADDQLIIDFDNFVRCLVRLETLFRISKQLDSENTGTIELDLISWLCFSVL

Fatty acid synthase [6] = molecular target: T3, Fatty acid synthase (Homo sapiens, UniProt P49327); experiment: inhibition of human FAS-TE enzyme activity – biochemical, endpoint fluorescence intensity, uHTS hits, dose response (AID 624327); type: functional;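 also: fluorescence from hydrolysis of an O-methyl fluorescein acyl ester substrate by the enzyme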
Fatty acid synthase [7] = molecular target: T3, Fatty acid synthase; experiment: inhibition of human FAS-TE enzyme activity – biochemical, kinetic fluorescence intensity, dose response (AID 624326); type: functional;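 also: rate of fluorescence rise from hydrolysis of a fluorogenic O-methyl fluorescein ester substrate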
[8] = blockers of HIV-1 envelope-mediated cell-cell fusion – cherry-pick, dose response (AID 652057); type: functional, cell-based
[9] = off-target signal loss in HeLa-CEM21 co-culture – HeLa F-luc CTL cells, cherry-picked, counter-screen for HIV-1 Env fusion inhibitor project, dose response (AID 652040); type: functional, cell-based;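 also: potency for signal decrease marking cytotoxic or nonspecific inhibition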
[10] = HIV-1 AD8 envelope cell-cell fusion blockers – cherry-pick, dose response (AID 652062); type: functional, cell-based;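 also: luciferase signal from cell-cell fusion driven by HIV-1 clade B AD8 Env; potency is for inhibitors of fusion seen as a drop in luminescence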
[11] = molecular target: T4, Apoptotic protease-activating factor 1 (Homo sapiens, UniProt O14727); type: functional
T4 sequence (O14727 whole entry): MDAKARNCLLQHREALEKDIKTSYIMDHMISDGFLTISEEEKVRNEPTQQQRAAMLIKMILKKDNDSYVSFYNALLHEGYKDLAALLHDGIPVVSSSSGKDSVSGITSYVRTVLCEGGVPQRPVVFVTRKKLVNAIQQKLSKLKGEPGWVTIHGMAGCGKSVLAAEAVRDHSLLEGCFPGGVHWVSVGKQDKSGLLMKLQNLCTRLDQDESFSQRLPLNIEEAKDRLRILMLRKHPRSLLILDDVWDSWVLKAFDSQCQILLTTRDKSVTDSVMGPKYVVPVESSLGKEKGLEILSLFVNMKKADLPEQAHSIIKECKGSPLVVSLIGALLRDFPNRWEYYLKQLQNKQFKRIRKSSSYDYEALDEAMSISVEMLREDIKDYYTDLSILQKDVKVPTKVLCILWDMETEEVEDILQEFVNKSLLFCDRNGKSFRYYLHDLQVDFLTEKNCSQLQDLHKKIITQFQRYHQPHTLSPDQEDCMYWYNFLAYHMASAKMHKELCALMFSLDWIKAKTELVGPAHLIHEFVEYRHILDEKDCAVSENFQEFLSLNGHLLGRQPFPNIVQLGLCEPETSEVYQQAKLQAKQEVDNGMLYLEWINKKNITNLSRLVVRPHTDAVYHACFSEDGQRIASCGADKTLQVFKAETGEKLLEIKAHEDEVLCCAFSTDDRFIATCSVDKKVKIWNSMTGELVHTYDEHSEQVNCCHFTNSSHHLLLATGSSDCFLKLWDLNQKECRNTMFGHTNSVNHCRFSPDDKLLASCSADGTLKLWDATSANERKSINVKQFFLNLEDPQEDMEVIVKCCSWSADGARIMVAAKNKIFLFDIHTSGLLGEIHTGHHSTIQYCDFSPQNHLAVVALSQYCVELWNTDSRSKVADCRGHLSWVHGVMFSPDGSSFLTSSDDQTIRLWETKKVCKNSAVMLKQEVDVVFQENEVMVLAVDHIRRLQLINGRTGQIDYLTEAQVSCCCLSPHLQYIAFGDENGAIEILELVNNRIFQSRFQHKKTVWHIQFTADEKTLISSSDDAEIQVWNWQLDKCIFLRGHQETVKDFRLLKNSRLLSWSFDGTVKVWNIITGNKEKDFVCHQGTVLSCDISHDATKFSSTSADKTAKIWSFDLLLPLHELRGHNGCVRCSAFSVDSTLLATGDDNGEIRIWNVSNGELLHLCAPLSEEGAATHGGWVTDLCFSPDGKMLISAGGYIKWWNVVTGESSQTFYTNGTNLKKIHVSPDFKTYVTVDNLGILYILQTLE

[12] = tested on: Streptococcus sp. 'group A'; experiment: Streptococcus pyogenes SK(-)GAS viability under kanamycin – luminescence, BacTiterGlo, confirmation, counter-screen for streptokinase expression inhibitor project, dose response (AID 1900); type: functional, organism-based; conditions: Streptococcus sp. 'group A'
Streptokinase A = molecular target: T5, Streptokinase A (Streptococcus pyogenes serotype M1, UniProt P10520); experiment: viability-normalized secreted streptokinase activity reduction – plasminogen activation absorbance, OD405, dose response (AID 1914); type: functional, Streptococcus pyogenes M1 GAS;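 also: secreted streptokinase activity via plasminogen activation per viability signal from cell pellet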
T5 sequence (P10520 whole entry): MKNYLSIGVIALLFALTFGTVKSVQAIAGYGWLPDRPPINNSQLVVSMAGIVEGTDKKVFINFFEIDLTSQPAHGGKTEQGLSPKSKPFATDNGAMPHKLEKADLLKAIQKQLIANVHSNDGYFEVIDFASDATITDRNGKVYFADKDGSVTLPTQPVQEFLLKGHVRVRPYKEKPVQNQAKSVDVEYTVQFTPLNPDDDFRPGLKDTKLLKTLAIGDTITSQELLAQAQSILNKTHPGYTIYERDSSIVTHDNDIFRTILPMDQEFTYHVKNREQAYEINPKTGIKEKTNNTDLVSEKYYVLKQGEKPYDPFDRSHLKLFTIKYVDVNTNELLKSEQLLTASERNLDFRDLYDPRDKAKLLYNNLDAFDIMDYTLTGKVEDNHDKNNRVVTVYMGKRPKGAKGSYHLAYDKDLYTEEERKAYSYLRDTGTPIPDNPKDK

Streptococcus = experiment: GAS UMAA2166 growth inhibition – luminescence, BacTiterGlo, counter-screen for streptokinase expression inhibitor project, dose response (AID 1915); type: functional, organism-based; conditions: Streptococcus;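 also: potency for reduction of bacterial viability or growth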
[13] = molecular target: T6, Carboxy-terminal domain RNA polymerase II polypeptide A small phosphatase 1 (Homo sapiens, UniProt Q9GZU7); experiment: CTDSP1 inhibitors, concentration-response, biochemical, absorbance readout, ultra-high-throughput screen actives (AID 540297); type: functional
T6 sequence (Q9GZU7 whole entry): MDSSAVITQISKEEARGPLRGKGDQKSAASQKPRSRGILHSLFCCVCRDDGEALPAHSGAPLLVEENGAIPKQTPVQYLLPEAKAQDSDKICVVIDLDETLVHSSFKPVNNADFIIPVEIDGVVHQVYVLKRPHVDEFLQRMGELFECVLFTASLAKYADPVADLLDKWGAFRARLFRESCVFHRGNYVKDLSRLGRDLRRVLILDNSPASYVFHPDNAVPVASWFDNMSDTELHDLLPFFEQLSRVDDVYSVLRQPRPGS

[14] = Trypanosoma cruzi growth suppression in host cells – NIH3T3 host cells, beta-gal luminescence, confirmation (AID 2044); type: functional, cell-based;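 also: intracellular parasites grown in NIH/3T3 mouse fibroblasts as host cells; luminescent beta-galactosidase reporter signal from transgenic T. cruzi replicating inside host cells; inhibitors lower the luminescence signal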
[15] = NIH3T3 cell viability loss – ATP luminescence, mouse fibroblasts, counter-screen, dose response (AID 2010); type: functional, cell-based; conditions: NIH3T3;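 also: cells exposed to compound for about 90 hours before reading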
[16] = THP-1 cell cytotoxicity, dose response, cytotoxicity control for non-replicating M. tuberculosis project (AID 489025); type: functional
[17] = HepG2 cell cytotoxicity, dose response, cytotoxicity control for non-replicating M. tuberculosis project (AID 489018); type: functional; conditions: Mycobacterium tuberculosis
[18] = Vero E6 cell cytotoxicity, dose response, cytotoxicity control for non-replicating M. tuberculosis project, secondary assay (AID 492998); type: functional, VeroE6; conditions: Vero C1008
cells = type: functional

T3 sequence (P49327 whole entry): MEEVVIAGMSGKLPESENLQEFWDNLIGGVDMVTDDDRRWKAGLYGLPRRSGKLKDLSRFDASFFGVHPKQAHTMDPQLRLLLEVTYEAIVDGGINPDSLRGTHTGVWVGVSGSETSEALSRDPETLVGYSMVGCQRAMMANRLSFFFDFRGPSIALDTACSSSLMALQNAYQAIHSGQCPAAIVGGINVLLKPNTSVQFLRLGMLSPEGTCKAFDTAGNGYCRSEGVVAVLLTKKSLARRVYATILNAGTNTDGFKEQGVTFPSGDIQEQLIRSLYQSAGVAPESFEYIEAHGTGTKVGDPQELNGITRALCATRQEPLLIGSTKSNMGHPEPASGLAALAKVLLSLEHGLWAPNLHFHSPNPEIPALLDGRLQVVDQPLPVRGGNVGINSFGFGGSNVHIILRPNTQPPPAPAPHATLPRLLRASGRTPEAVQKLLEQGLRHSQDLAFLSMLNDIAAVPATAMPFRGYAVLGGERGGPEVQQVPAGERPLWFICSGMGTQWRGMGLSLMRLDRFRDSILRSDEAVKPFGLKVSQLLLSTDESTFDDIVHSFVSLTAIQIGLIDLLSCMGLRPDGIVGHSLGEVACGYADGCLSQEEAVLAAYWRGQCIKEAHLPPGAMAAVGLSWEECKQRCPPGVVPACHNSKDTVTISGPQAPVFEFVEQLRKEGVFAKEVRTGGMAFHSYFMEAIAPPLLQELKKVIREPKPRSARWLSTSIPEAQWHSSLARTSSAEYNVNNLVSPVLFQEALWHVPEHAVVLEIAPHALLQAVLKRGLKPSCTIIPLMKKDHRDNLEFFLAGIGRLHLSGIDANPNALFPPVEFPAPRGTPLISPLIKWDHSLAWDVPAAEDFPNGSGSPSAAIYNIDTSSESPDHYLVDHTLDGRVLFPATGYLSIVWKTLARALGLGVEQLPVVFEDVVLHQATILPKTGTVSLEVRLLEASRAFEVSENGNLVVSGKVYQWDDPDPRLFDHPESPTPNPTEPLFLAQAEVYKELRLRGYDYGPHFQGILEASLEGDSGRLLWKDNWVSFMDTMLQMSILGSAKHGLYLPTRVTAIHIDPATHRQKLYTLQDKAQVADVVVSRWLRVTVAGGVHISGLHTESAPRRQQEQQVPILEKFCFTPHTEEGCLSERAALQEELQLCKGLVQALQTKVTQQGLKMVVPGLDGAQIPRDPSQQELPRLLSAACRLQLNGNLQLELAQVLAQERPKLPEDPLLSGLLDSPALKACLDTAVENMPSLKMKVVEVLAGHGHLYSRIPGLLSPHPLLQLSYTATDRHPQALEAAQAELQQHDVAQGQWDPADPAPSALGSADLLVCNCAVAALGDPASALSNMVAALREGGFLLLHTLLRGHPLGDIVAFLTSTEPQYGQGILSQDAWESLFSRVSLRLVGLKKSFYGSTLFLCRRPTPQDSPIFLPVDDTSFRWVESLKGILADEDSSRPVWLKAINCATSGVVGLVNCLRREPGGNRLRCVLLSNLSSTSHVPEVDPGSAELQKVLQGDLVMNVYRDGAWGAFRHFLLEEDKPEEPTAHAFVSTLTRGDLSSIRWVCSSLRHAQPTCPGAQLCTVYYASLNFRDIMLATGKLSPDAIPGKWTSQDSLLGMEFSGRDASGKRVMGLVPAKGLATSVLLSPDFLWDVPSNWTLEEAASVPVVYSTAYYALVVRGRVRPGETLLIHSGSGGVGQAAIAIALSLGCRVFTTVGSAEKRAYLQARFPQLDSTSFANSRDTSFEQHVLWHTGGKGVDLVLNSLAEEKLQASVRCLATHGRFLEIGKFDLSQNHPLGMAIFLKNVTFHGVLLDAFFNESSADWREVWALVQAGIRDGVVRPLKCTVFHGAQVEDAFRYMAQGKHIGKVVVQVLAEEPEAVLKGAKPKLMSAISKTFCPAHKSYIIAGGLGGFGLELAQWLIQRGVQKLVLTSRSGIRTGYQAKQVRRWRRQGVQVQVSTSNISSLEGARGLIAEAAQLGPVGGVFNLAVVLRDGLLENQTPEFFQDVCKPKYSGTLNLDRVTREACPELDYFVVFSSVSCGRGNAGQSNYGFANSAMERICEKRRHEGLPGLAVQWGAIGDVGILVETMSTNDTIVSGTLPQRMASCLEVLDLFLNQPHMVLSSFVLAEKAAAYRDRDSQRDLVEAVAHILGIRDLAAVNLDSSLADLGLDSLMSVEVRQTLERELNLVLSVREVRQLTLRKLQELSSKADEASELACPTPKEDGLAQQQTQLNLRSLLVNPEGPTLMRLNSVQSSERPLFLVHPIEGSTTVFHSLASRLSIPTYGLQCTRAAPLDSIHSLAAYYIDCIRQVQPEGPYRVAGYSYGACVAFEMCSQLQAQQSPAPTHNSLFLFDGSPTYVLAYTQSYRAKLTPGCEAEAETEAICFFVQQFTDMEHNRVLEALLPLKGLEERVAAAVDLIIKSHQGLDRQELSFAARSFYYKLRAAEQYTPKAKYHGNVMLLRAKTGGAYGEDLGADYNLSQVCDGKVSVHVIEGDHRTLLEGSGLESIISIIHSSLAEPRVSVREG
Chain of Estrogen receptor beta (Q92731 whole entry): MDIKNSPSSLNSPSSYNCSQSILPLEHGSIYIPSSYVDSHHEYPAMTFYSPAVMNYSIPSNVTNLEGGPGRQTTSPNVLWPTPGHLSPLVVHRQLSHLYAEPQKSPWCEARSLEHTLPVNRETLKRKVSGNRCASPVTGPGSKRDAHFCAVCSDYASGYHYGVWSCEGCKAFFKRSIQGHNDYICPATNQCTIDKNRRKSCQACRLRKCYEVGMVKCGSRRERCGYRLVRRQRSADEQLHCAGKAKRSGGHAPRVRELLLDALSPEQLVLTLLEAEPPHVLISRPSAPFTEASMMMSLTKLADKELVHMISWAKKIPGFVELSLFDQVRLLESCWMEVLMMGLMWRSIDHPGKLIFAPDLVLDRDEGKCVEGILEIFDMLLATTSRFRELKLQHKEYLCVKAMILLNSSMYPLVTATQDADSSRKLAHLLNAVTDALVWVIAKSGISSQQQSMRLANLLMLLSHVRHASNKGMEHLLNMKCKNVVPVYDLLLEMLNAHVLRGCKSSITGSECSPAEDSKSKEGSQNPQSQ
Chain of Glucose-6-phosphate 1-dehydrogenase (P11413 whole entry): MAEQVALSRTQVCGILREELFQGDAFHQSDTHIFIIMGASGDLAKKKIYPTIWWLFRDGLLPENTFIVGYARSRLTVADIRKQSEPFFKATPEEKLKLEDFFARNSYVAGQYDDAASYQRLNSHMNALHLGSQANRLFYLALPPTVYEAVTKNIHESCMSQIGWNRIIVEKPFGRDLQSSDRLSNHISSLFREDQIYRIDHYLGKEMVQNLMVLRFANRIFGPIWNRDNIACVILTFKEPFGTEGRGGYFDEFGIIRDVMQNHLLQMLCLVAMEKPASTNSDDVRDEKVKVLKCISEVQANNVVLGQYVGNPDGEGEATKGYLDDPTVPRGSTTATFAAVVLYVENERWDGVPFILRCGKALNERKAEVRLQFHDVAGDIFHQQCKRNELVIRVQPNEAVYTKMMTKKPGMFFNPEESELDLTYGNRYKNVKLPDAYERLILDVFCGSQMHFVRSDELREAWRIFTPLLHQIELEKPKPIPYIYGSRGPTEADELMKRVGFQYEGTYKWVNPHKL

CN1C(=O)C(N=Nc2ccc([N+](=O)[O-])cc2)SC1=S (centres undefined)
IC50 [1]: > 80 µM (inactive) | AC50 [2]: 14.5 µM (active) | IC50 [3]: < 0.368 µM (active) | EC50 [4]: 1.69 µM (active)

Cc1cc(-c2ccc(N3C(=O)CCC3=O)c(C)c2)ccc1N1C(=O)CCC1=O
IC50 (Estrogen receptor beta): > 50 µM (not active)

O=C(COC(=O)CSc1ccc2ccccc2c1)Nc1ccccc1OC(F)F
IC50 [5]: 1.8 µM (not active)

O=C(CN=C(S)N(Cc1ccccc1)Cc1ccccc1F)NCc1ccccc1
IC50 [5]: > 50 µM (not active)

Cc1ccc(C)c(NC(=O)Cc2nc(CCl)cs2)c1
IC50 [5]: 1.04 µM (not active)

C[C@@]12C(=O)N(c3cccc(Br)c3)C(=O)N1[C@H](c1ccc(Cl)cc1)[C@@H]1C(=O)N(C3CCCCC3)C(=O)[C@@H]12
IC50 (Fatty acid synthase [6]): 7.4 µM (active) | IC50 (Fatty acid synthase [7]): 5.22 µM (active)

Cc1c([C@H]2[C@@H](CC#N)C2(C)C)c2ccccc2n1C
IC50 (Estrogen receptor beta): > 50 µM (not active)

CCN(CC)S(=O)(=O)c1cccc(S(=O)(=O)c2cccc(S(=O)(=O)N(CC)CC)c2)c1
AC50 [8]: 20.8 µM (active) | AC50 [9]: 43.7 µM (active) | AC50 [10]: 18.3 µM (active)

CSc1ccc(CN2C(=O)C(F)(F)Oc3c(C(C)=O)cccc32)cc1
IC50 (Fatty acid synthase [6]): 9.19 µM (active) | IC50 (Fatty acid synthase [7]): 9.77 µM (active)

O=C(Nc1ccc(Br)cc1)c1cccc(-n2cnnn2)c1
IC50 (Fatty acid synthase [6]): 32.9 µM (inactive) | IC50 (Fatty acid synthase [7]): 24.8 µM (inactive)

COc1cc(/C=N/n2cnnc2)ccc1OS(=O)(=O)c1ccccc1[N+](=O)[O-]
IC50 [5]: 15.5 µM (not active)

Cc1cccc(C)c1NC(=O)C(Cl)C(=O)c1ccccc1 (centres undefined)
AC50 [2]: 0.855 µM (active)

CCOc1cc(NCc2ccccc2)c2ncn(C(C)C)c2c1
IC50 [1]: > 80 µM (inactive) | IC50 [11]: 34.7 µM (active)

COc1cccc(-n2nc(-c3ccnn3-c3ccc(F)cc3)c(=O)n(C)c2=O)c1
IC50 (Estrogen receptor beta): > 50 µM (not active)

COc1ccc(C(=O)N2CCN(CCc3ccccc3)CC2)cc1[N+](=O)[O-]
IC50 (Fatty acid synthase [6]): 0.786 µM (active) | IC50 (Fatty acid synthase [7]): 0.525 µM (active)

CCOc1ccccc1N1CCN(C(=O)C2c3ccccc3Oc3ccccc32)CC1
IC50 [11]: 29.3 µM (active)

CCOC(=O)c1ccc(N2C(=O)CC(N(C)CCc3ccc(OC)c(OC)c3)C2=O)cc1 (centres undefined)
AC50 [2]: 3.1 µM (active)

Oc1ccc(O)c2c1C1(Cl)C(Cl)=C(Cl)C2(Cl)C1(Cl)Cl
AC50 [2]: 8.21 µM (active) | IC50 (Fatty acid synthase [6]): 15.7 µM (active) | IC50 (Fatty acid synthase [7]): 14.1 µM (active)

N[C@@H](C(=O)N[C@@H]1C(=O)N2C(C(=O)O)=C(Cl)CS[C@H]12)c1ccccc1 [CEFACLOR ANHYDROUS]
EC50 [12]: 0.559 µM (active) | EC50 (Streptokinase A): > 150 µM (not active) | EC50 (Streptococcus): 1.32 µM (active) | IC50 [13]: 7.18 µM (active)

CCCc1cc(NCc2ccccn2)n2nc(C)c(-c3ccccc3)c2n1
EC50 [12]: 6.67 µM (active) | EC50 (Streptokinase A): > 150 µM (not active) | EC50 [14]: 3.58 µM (active) | EC50 [15]: 8.73 µM (active) | EC50 (Streptococcus): 21.7 µM (active) | CC50 [16]: 10.2 µM (active) | CC50 [17]: 4.48 µM (active) | CC50 [18]: > 20 µM (active) | IC50 (cells): 1.18 µM (active) | AC50 [2]: 1.58 µM (active)
